# Measured values from paper PMC9024338, “Bruceine H Mediates EGFR-TKI Drug Persistence in NSCLC by Notch3-Dependent β-Catenin Activating FOXO3a Signaling” (Frontiers in Oncology, 2022).
# Like-named read-outs stand apart in the source and are kept apart here.
# Assays:
# [1] = Toxicity study in nude mice: organ index, blood routine, serum biochemistry; type: in vivo
# Protocol: At the end of the experiment, blood samples were taken and analyzed by blood routine. […] The lungs and spleen were weighed and recorded. H&E staining of the heart, liver, spleen, lungs, and kidneys was performed to evaluate the cytotoxic effects of BH.
# PC-9/GR cells [2] = assay: Apoptosis by flow cytometry (Annexin V-FITC/PI), PC-9/GR; type: cell-based, human; conditions: low-dose BH (4, 8 μM), gefitinib 25 μM, alone or combined
# Protocol: After being digested with trypsin without EDTA, the cells were washed gently with culture medium and twice with cold PBS. The pellet was resuspended in 400 μl of 1× binding buffer, the resuspended cells were transferred to flow tubes, then Annexin V-FITC (5 μl) and propidium iodide (10 μl) were added, and the mixture was incubated for 15 min at room temperature in the dark. The percentage of apoptotic cells was determined by flow cytometry (Backman, CA, USA) and FlowJo V10 software.
# A549 xenografts = A549 xenografts in BALB/c nude mice; type: in vivo
# Protocol: The total proteins of cells and tissues were extracted with RIPA cleavage buffer containing a protease inhibitor cocktail, phenylmethylsulfonyl fluoride (PMSF, Solarbio). The cell lysates (20 μg) were run on SDS-polyacrylamide gel (6%–10%) and transferred to the polyvinylidene fluoride membrane (PVDF, Millipore, MA, USA) by electrophoresis. The membrane was blocked with 5% skim milk in TBST for 2 h, incubated overnight with the corresponding primary antibody at 4°C, and then incubated with the corresponding secondary antibody at room temperature for 2 h. The reaction products were detected by chemiluminescence by ECL Western Blotting Detection System. Finally, quantitative analysis was carried out with ImageJ software.
# The heart, liver, spleen, lung, kidney, and tumor tissues were embedded in paraffin, and the sections (4 µm) were stained with hematoxylin–eosin (H&E, Solarbio) and then examined and analyzed under a Leica DM6B microscope (Leica Microsystems, Wetzlar, Germany).
# The tumor section was dewaxed and repaired with antigen, 3% H2O2 was added, and then the section was sealed with 10% goat serum at room temperature for 30 min. The first antibody against Ki-67 and Notch3 (CST) was incubated overnight at 4°C, and the second antibody was incubated at room temperature for 30 min. After DAB staining, the sections were counterstained with hematoxylin for 2 min and then observed and analyzed under a Leica microscope.
# The animal procedures were approved by the Ethics Committee of the Experimental Animal Center of Jiangxi University of Chinese Medicine (Nanchang, China, SCXK 2016-0006) and conducted following the Guide for the Care and Use of Laboratory Animals. Four-week-old male BALB/c nude mice (weighing 16–17 g, SPF grade) were obtained from Shanghai Shrek Experimental Animal Co., Ltd. (Shanghai, China). The xenotransplantation model was established by subcutaneous injection of A549 or PC-9/GR cells in nude mice, which were collected with PBS and mixed with an equal volume of Matrigel at a final concentration of 1 × 10^7/ml. […] Measurements of tumor size and body weight were conducted every 2 days with a vernier caliper and an electronic balance. Nodule growth was quantified by using the following formula: tumor volume (mm^3) = (short-diameter)^2 × large-diameter × π/6.
# A549 cells = assay: Transwell migration and Matrigel invasion assays; type: cell-based, human; conditions: dose-dependent, 12 h treatment
# Protocol: The Transwell insert in a 24-well plate (8 μm, Corning, NY, USA) was taken out, and a 600-μl medium containing 10% FBS was added to the bottom chamber. The A549 cells were resuspended with 10% FBS culture medium, and the diluted cell suspension (3 × 10^5/300 μl) was cultured in the top chamber and then incubated with or without Matrigel (BD BioCoat). After 12 h, the medium in the top chamber was changed to RPMI-1640 without FBS, and BD or BH with different concentrations was added ([31]). After an additional 12 h, the cells that migrated or invaded the bottom side of the polycarbonate film were fixed with methanol for 30 min and then stained for 15 min with 0.1% crystal violet (Solarbio), after which their number was assessed under a microscope (×4, Nikon).
# PC-9/GR cells [3] = assay: CCK-8 cell viability assay, PC-9/GR (gefitinib-resistant); type: cell-based; conditions: Homo sapiens, 48 h, Figure 3B, unit only in axis title Concentration (μM)
# Protocol: (§1) The human NSCLC cell lines (A549, PC-9, and PC-9/GR) and other cell lines (16HBE and LO2) were purchased from the American Type Culture Collection (ATCC, Manassas, VA, USA). […] All cell lines were cultivated at 37°C under 5% CO2.
# (§2) The Cell Counting Kit-8 assays (Beyotime, Shanghai, China) were performed to assess cell viability. […] Microplate readers (Infinite F500, Tecan, Mannedorf, Switzerland) were used to measure the absorbance (A) at 450 nm. All samples were assessed in triplicate.
# 16HBE cells = assay: Toxicity to normal human cell line 16HBE (Figure S1); type: cell-based
# Protocol: Figure S1. The toxicity of Bruceine H (BH) and Bruceine D (BD) to 16HBE (A) and LO2 (B) cells was evaluated.
# PC-9 cells = assay: cells; type: cell-based, human; conditions: Homo sapiens
# Protocol: as §1, §2
# [4] = nude mice serum, mean ± SD (Table S4)
# [5] = nude mice, routine blood (Table S3)
# [6] = nude mice, Gef 25, BH 2.5, Gef + BH 25 + 2.5 mg×kg^-1×d^-1, X±S
structure (smiles),measurement,setting,value
"CC1=CC(=O)[C@@H](O)[C@]2(C)[C@H]3[C@@H](O)[C@H](O)[C@@]4(CO)OC[C@@]35[C@@H](C[C@@H]12)OC(=O)[C@H](O)[C@]54O [BH, Bruceine H]",HDL-C,[1]; [4],1.14 ± 0.18 mmol/L
same,LDL-C,[1]; [4],1.40 ± 0.08 mmol/L
same,TC,[1]; [4],3.25 ± 0.21 mmol/L
same,TG,[1]; [4],0.70 ± 0.16 mmol/L
same,GR,[1]; [5],3.36±2.394 ×10^9/L
same,GR (%),[1]; [5],80.567±11.274%
same,HCT,[1]; [5],62.867±5.658%
same,HGB,[1]; [5],172.333 ± 12.014 g/L
same,LY,[1]; [5],0.920±0.401 ×10^9/L
same,LY (%),[1]; [5],14.7±6.165%
same,MCH,[1]; [5],15.567 ± 0.289 pg
same,MCHC,[1]; [5],296.333 ± 10.970 g/L
same,MCV,[1]; [5],52.567 ± 1.823 fL
same,MO,[1]; [5],0.242±0.045 ×10^9/L
same,MO (%),[1]; [5],5.043±1.086%
same,MPV,[1]; [5],7.267 ± 0.208 fL
same,PCT,[1]; [5],0.753±0.195 mL/L
same,PLT,[1]; [5],1030±241.156 ×10^9/L
same,RBC,[1]; [5],13.193±1.792 ×10^12/L
same,WBC,[1]; [5],6.633±2.371 ×10^8/L
same,Lung index,[1]; [6],32.463 ± 2.078 g/kg
same,Spleen index,[1]; [6],5.949 ± 0.526 g/kg
same,apoptosis of PC-9/GR cells,PC-9/GR cells [2],little effects
same,growth of A549 xenografts,"A549 xenografts; 2.5 or 5 mg/kg intragastric, 16 days",significantly inhibited
same,"organ indexes of heart, kidney, liver, lung, spleen",A549 xenografts; A549 xenograft mice,no significant changes
same,body weight,"A549 xenografts; A549 xenograft mice, 2.5 and 5 mg/kg",without significant changes
same,Notch3 expression in tumor xenografts,"A549 xenografts; A549 xenografts, IHC, vs model group",decreased in a dose-dependent manner
same,number of Ki-67-positive cells in cancer tissues,"A549 xenografts; A549 xenografts, IHC, vs vehicle",decreased
same,"Notch3, β-catenin, and Bcl-2 protein levels in tumor tissues","A549 xenografts; A549 xenografts, Western blot",decreased
same,expression of FOXO3a in tumor tissues,"A549 xenografts; A549 xenografts, Western blot",increased
same,Transwell migration and invasion of A549,A549 cells,significant anti-invasive and antimigratory actions
same,IC50,PC-9/GR cells [3],21.7 µM
same,toxicity to 16HBE cells,16HBE cells,no apparent toxicity
same,IC50,"PC-9 cells; PC-9, 24 h, Figure 2A, read-out: IC50 (24h)",55.4 µM
same,IC50,"PC-9 cells; PC-9, 48 h, read-out: IC50",12.6 µM
